The values that follow come from US20210284618A1, “FURANOCHALCONES AS INHIBITORS OF CYP1A1, CYP1A2 AND CYP1B1 FOR CANCER CHEMOPREVENTION” (Council of Scientific & Industrial Research, priority 2016, published 2021).

SMILES strings stand for the structures.

The target in one data set is T1, CYP1A2 (Homo sapiens, UniProt P05177).
T1 construct: host or cells: yeast microsomes (Saccharosomes)
T1 sequence (P05177 1-516): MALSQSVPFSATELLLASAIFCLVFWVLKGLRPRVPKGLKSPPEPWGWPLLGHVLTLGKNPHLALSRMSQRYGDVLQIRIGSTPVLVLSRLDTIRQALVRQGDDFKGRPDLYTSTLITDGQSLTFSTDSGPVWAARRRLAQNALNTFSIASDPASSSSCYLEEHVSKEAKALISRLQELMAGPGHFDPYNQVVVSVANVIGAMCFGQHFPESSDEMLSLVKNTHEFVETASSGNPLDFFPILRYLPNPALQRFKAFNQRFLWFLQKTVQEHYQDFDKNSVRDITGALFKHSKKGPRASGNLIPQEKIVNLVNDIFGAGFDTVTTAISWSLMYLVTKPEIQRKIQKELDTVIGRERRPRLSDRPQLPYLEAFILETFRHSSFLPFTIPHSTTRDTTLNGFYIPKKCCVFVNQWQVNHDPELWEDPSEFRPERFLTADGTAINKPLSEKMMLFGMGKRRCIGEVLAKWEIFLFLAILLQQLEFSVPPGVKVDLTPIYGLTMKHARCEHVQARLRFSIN
Briefly: CYP1A2 inhibition in Saccharosomes. Type of data set: biochemical. The method, then:
(§1) Example 25. IC50 determination for best compound against CYP1A1, CYP1B1 and other CYPs in Saccharosomes. Compounds were serially diluted to six different concentrations with 10% DMSO in a Sero-Well white microplate. The experiment was performed in a similar way as described above in examples 23 and 24.

The next data set addresses T2, CYP2C8 (Homo sapiens, UniProt P10632).
T2 construct: host or cells: yeast microsomes (Saccharosomes)
T2 sequence (P10632 1-490): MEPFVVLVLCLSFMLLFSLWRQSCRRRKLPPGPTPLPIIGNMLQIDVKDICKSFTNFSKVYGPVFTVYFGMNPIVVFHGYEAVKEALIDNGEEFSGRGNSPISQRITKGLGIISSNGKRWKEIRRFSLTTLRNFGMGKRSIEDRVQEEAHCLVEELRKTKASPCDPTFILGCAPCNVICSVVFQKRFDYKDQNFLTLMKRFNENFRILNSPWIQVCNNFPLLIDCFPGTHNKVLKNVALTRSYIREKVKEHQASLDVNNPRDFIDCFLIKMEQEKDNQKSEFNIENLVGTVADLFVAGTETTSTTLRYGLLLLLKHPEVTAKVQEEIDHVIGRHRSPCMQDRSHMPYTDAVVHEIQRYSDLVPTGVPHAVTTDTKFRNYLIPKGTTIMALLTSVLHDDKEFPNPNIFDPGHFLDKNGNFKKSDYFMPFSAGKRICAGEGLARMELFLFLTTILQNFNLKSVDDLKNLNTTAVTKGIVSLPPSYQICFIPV
Briefly: CYP2C8 inhibition in Saccharosomes. Type of data set: biochemical. Particulars: Saccharosomes containing CYP2C8.

The target of another data set is T3, CYP2C18 (Homo sapiens, UniProt P33260).
T3 construct: host or cells: yeast microsomes (Saccharosomes)
T3 sequence (P33260 26-490): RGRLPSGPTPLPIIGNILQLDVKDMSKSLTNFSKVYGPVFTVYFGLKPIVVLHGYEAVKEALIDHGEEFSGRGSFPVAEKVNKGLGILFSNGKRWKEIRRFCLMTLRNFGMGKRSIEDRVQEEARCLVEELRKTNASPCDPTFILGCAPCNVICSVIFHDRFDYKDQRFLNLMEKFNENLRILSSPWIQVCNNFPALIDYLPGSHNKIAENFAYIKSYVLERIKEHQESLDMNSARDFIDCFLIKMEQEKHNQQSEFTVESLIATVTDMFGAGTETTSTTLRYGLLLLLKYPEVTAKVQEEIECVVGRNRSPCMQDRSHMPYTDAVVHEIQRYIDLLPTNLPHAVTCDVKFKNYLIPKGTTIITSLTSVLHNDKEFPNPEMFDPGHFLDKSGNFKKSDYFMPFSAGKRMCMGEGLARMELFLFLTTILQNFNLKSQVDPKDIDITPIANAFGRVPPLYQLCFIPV
Briefly: CYP2C18 inhibition in Saccharosomes. The class given is biochemical. Particulars: Saccharosomes containing CYP2C18.

A further data set addresses T4, CYP2D6 (Homo sapiens, UniProt P10635).
T4 construct: host or cells: yeast microsomes (Saccharosomes)
Briefly: CYP2D6 inhibition in Saccharosomes. The class given is biochemical. The method, then:
as §1

In a further data set the target is T5, CYP2E1 (Homo sapiens, UniProt P05181).
T5 construct: host or cells: yeast microsomes (Saccharosomes)
T5 sequence (P05181 whole entry): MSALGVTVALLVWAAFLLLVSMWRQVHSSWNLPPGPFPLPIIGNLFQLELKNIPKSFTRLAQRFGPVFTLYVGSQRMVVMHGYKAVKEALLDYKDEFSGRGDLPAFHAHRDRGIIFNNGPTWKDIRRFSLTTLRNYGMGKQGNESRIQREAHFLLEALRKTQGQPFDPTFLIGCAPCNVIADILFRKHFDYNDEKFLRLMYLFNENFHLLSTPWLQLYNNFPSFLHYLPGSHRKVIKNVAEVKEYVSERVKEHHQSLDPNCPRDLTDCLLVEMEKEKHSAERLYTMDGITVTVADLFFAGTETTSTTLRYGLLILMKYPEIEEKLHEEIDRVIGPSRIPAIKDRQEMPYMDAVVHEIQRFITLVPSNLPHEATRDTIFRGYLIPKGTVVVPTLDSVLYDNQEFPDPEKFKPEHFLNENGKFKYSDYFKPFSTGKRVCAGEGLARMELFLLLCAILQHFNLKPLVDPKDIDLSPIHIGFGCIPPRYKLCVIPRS
Nature of the data set: CYP2E1 inhibition in Saccharosomes. The class given is biochemical. The method, then: as §1

A further data set addresses T6, CYP3A4 (Homo sapiens, UniProt P08684).
T6 construct: host or cells: yeast microsomes (Saccharosomes)
Briefly: CYP3A4 inhibition in Saccharosomes. The class given is biochemical. The method, then: as §1

Another data set deals with T7, CYP1A1 (Homo sapiens, UniProt P04798).
T7 construct: host or cells: yeast microsomes (Saccharosomes)
T7 sequence (P04798 1-512): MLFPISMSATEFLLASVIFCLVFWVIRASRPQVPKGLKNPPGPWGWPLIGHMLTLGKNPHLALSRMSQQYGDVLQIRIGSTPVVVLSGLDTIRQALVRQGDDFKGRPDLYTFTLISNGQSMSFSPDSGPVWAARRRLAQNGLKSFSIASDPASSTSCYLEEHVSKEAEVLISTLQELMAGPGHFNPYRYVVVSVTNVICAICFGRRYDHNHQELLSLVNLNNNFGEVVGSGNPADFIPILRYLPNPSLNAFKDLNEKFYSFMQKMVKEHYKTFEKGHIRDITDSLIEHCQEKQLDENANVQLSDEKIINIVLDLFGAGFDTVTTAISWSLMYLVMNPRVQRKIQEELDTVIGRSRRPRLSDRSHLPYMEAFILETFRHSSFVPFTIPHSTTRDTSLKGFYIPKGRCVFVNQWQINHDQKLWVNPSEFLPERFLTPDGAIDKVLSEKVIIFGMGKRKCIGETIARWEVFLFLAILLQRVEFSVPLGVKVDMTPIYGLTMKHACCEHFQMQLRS
Nature of the data set: CYP1A1 inhibition in HEK293 cells transfected with pcDNA3.1/CYP1A1 (live cells). Type of data set: cell-based. The method, then:
Example 26. In-vitro CYP450 inhibition in HEK293 cells transfected with pcDNA3.1/CYP1A1 against 5 μM EROD. […] The HEK293 cells used here was procured from ‘European Collection of Authenticated Cell Cultures’ (catalog number. ECACC 85120602).

T4 sequence (P10635 whole entry): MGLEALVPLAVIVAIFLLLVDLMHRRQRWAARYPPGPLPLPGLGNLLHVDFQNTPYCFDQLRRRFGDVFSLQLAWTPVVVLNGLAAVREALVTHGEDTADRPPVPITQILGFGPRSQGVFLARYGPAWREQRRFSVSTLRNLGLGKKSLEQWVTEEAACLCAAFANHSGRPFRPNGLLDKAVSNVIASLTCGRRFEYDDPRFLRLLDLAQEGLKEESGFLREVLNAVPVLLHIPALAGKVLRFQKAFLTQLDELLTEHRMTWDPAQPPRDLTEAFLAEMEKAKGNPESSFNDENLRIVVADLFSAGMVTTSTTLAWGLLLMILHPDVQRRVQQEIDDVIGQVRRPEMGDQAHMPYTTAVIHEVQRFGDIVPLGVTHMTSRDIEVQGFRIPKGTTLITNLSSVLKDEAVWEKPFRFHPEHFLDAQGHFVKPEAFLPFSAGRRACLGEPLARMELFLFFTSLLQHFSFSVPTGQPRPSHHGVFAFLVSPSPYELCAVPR
T6 sequence (P08684 whole entry): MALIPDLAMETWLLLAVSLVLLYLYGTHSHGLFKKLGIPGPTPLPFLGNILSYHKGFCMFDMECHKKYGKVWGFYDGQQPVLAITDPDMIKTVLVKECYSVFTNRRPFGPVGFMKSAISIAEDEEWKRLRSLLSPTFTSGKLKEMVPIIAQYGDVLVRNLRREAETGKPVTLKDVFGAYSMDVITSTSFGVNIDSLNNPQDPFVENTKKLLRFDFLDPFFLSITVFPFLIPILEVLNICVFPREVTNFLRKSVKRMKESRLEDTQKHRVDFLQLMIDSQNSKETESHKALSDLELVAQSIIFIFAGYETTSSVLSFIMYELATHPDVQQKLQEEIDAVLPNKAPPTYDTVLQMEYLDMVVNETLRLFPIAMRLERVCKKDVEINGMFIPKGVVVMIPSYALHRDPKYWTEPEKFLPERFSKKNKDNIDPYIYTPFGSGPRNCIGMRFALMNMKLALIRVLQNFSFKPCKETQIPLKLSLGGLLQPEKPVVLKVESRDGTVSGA

For the molecule `COc1c(C(=O)/C=C/c2cccnc2)c(O)c(OC)c2occc12` [Compound 8, 3-(4,7-dimethoxy-6-hydroxybenzofuran-5-yl)-1-(pyridin-3-yl)-3-oxopropene], the melting point (in general, the temperature, or range, at which the solid turns liquid) lay in the range of 112 to 114 °C. The IC50 (as a rule, the concentration at which inhibition is half-maximal) against CYP1A2 stood at 166 nM. Moreover, the inhibition (usually the change of the read-out against control, counted positive when it falls) at 20 µM against CYP2C8 turned out to be 24%. Further, at 20 µM the inhibition against CYP2C18 was 63%. The molecule further returned an IC50 against CYP2D6 of 7000 nM. The molecule further showed an inhibition at 20 µM against CYP2D6 (human, Saccharosomes containing CYP2D6, 20 μM) of 84%. On CYP2E1, the “Inhibition of CYP2E1 at 10 μM” value is on record as “No Inhibition”. On CYP3A4, the IC50 turned out to be 3000 nM. Also, on CYP1A1, the IC50 came to 470 nM. For the same molecule, the “% inhibition of CYP1A1 in HEK293 cells at 10 μM” value at CYP1A1 (10 μM, 5 μM EROD) is listed as 99.2%. Further, the inhibition at 10 μM on CYP1A1 (human, HEK293 cells transfected with pcDNA3.1/CYP1A1 (live cells), probe EROD (5 μM), % inhibition of CYP1A1 in HEK293 cells at 10 μM, 10 μM, 5 μM EROD) was above 80%.
